Data from patent publication US8314239B2, “Modulators of cystic fibrosis transmembrane conductance regulator” (priority 2008, dated 2012).
pEC50: −log10 of the molar value. Structures can show the parent of a compound that is named as a salt.

Target: T1, ΔF508-CFTR (Homo sapiens, UniProt P13569, DEL508-508)
T1 construct: expressed in transfected cells
Assay: Membrane potential optical assay for ΔF508-CFTR potentiation (double-addition HTS, FLIPR III)
Assay type: cell-based
Settings: for Emax: 100% efficacy is the maximum response obtained with 4-methyl-2-(5-phenyl-1H-pyrazol-3-yl)phenol
Text: Membrane Potential Optical Methods for Assaying ΔF508-CFTR Modulation Properties of Compounds
The assay utilizes fluorescent voltage sensing dyes to measure changes in membrane potential using a fluorescent plate reader (e.g., FLIPR III, Molecular Devices, Inc.) as a readout for increase in functional ΔF508-CFTR in NIH 3T3 cells. The driving force for the response is the creation of a chloride ion gradient in conjunction with channel activation by a single liquid addition step after the cells have previously been treated with compounds and subsequently loaded with a voltage sensing dye.
To identify potentiators of ΔF508-CFTR, a double-addition HTS assay format was developed. This HTS assay utilizes fluorescent voltage sensing dyes to measure changes in membrane potential on the FLIPR III as a measurement for increase in gating (conductance) of ΔF508 CFTR in temperature-corrected ΔF508 CFTR NIH 3T3 cells. The driving force for the response is a Cl^− ion gradient in conjunction with channel activation with forskolin in a single liquid addition step using a fluorescent plate reader such as FLIPR III after the cells have previously been treated with potentiator compounds (or DMSO vehicle control) and subsequently loaded with a redistribution dye.
Bath Solution #1: (in mM) NaCl 160, KCl 4.5, CaCl2 2, MgCl2 1, HEPES 10, pH 7.4 with NaOH.
Chloride-Free Bath Solution: Chloride Salts in Bath Solution #1 are Substituted with Gluconate Salts.
NIH3T3 mouse fibroblasts stably expressing ΔF508-CFTR are used for optical measurements of membrane potential. The cells are maintained at 37° C. in 5% CO2 and 90% humidity in Dulbecco's modified Eagle's medium supplemented with 2 mM glutamine, 10% fetal bovine serum, 1×NEAA, β-ME, 1× pen/strep, and 25 mM HEPES in 175 cm^2 culture flasks. For all optical assays, the cells were seeded at ˜20,000/well in 384-well matrigel-coated plates and cultured for 2 hrs at 37° C. before culturing at 27° C. for 24 hrs. for the potentiator assay. For the correction assays, the cells are cultured at 27° C. or 37° C. with and without compounds for 16-24 hours. Electrophysiological Assays for assaying ΔF508-CFTR modulation properties of compounds.
Compounds of the invention are useful as modulators of ATP binding cassette transporters. Examples of activities and efficacies of the compounds of Formula (I) are shown below in Table 3. The compound activity is illustrated with “+++” if activity was measured to be less than 2.0 μM, “++” if activity was measured to be from 2 μM to 5.0 μM, “+” if activity was measured to be greater than 5.0 μM, and “−” if no data was available. The efficacy is illustrated with “+++” if efficacy was calculated to be greater than 100%, “++” if efficacy was calculated to be from 100% to 25%, “+” if efficacy was calculated to be less than 25%, and “−” if no data was available. It should be noted that 100% efficacy is the maximum response obtained with 4-methyl-2-(5-phenyl-1H-pyrazol-3-yl)phenol.

T1 sequence (P13569 with tags, fused parts or gaps DEL508-508): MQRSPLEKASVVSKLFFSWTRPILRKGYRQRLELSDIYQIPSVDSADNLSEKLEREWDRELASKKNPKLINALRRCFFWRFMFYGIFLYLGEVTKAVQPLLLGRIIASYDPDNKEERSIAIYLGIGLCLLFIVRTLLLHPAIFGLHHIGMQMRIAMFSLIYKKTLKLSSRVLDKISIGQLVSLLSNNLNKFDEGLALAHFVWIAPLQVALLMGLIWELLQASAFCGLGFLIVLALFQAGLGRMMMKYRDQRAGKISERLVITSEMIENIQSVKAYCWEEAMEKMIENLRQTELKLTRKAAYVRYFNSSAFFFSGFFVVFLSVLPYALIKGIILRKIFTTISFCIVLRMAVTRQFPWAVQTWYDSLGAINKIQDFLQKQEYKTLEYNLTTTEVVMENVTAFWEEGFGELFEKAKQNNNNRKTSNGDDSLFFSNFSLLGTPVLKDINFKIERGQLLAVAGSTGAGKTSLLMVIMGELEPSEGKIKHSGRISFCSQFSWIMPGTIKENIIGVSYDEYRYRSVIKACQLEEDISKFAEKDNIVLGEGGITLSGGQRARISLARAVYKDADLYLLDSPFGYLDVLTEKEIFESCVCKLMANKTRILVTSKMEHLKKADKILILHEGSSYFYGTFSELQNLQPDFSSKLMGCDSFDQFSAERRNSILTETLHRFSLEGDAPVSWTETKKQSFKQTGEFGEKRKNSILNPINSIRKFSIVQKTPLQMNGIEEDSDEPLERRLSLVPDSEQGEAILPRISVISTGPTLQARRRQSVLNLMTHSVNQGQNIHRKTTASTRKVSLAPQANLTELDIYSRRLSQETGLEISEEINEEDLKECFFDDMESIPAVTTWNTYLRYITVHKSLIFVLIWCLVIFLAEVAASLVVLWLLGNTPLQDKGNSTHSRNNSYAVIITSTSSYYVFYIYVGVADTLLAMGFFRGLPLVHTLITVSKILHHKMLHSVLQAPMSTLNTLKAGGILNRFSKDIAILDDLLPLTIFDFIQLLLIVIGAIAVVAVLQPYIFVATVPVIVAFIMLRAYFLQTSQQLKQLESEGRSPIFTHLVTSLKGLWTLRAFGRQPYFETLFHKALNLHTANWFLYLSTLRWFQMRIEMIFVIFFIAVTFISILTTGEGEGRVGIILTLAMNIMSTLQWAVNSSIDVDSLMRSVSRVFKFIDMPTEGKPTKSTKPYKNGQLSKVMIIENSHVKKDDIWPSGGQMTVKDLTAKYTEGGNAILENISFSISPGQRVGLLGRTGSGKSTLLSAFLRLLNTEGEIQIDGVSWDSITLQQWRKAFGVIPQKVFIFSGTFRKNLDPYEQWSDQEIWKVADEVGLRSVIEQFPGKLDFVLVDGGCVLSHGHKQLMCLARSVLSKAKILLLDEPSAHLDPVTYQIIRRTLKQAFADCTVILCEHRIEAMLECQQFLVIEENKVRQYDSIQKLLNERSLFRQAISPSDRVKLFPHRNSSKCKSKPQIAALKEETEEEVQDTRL

| SMILES | pEC50 | Emax [%] |
| --- | --- | --- |
| Cc1cc(N2C3CCC2CC3)ncc1NC(=O)c1c[nH]c2cccc(C)c2c1=O [Compound 1, N-(6-(7-azabicyclo[2.2.1]heptan-7-yl)-4-methylpyridin-3-yl)-5-methyl-4-oxo-1,4-dihydroquinoline-3-carboxamide hydrochloride] | > 5.70 | 25 to 100 |
| O=C(Nc1ccc(N2C3CCC2CC3)nc1C(F)(F)F)c1c[nH]c2cccc(C(F)(F)F)c2c1=O [Compound 2, N-(6-(7-azabicyclo[2.2.1]heptan-7-yl)-2-(trifluoromethyl)pyridin-3-yl)-4-oxo-5-(trifluoromethyl)-1,4-dihydroquinoline-3-carboxamide] | > 5.70 | 25 to 100 |
| Cc1cccc2[nH]cc(C(=O)Nc3ccc(N4C5CCC4CC5)nc3C(F)(F)F)c(=O)c12 [Compound 3] | > 5.70 | 25 to 100 |
